What was measured:
Conditions in all cases: 72 h
Vero E6 [1] = assay: cell viability relative to DMSO; higher = less toxic
Caco-2 [2] = assay: as above
U2OS [3] = assay: as above
Calu-3 [4] = assay: as above
HepG2 [5] = assay: as above
Vero E6 [6] = assay: relative viability EC50 (midpoint between 100% and the lowest measured viability); higher = less toxic
Caco-2 [7] = assay: as above
U2OS [8] = assay: as above
Calu-3 [9] = assay: as above
HepG2 [10] = assay: as above
Vero E6 [11] = assay: drug sensitivity score (DSS) for viability; higher = more toxic; extreme values may be limits of the assay
Caco-2 [12] = assay: as above
U2OS [13] = assay: as above
Calu-3 [14] = assay: as above
HepG2 [15] = assay: as above

Structure (SMILES)	cell viability (Vero E6 [1]; 1 nM) [%]	cell viability (Vero E6 [1]; 10 nM) [%]	cell viability (Vero E6 [1]; 100 nM) [%]	cell viability (Vero E6 [1]; 1000 nM) [%]	cell viability (Vero E6 [1]; 10000 nM) [%]	cell viability (Caco-2 [2]; 1 nM) [%]	cell viability (Caco-2 [2]; 10 nM) [%]	cell viability (Caco-2 [2]; 100 nM) [%]	cell viability (Caco-2 [2]; 1000 nM) [%]	cell viability (Caco-2 [2]; 10000 nM) [%]	cell viability (U2OS [3]; 1 nM) [%]	cell viability (U2OS [3]; 10 nM) [%]	cell viability (U2OS [3]; 100 nM) [%]	cell viability (U2OS [3]; 1000 nM) [%]	cell viability (U2OS [3]; 10000 nM) [%]	cell viability (Calu-3 [4]; 1 nM) [%]	cell viability (Calu-3 [4]; 10 nM) [%]	cell viability (Calu-3 [4]; 100 nM) [%]	cell viability (Calu-3 [4]; 1000 nM) [%]	cell viability (Calu-3 [4]; 10000 nM) [%]	cell viability (HepG2 [5]; 1 nM) [%]	cell viability (HepG2 [5]; 10 nM) [%]	cell viability (HepG2 [5]; 100 nM) [%]	cell viability (HepG2 [5]; 1000 nM) [%]	cell viability (HepG2 [5]; 10000 nM) [%]	relative viability EC50 (Vero E6 [6]) [µM]	relative viability EC50 (Caco-2 [7]) [µM]	relative viability EC50 (U2OS [8]) [µM]	relative viability EC50 (Calu-3 [9]) [µM]	relative viability EC50 (HepG2 [10]) [µM]	drug sensitivity score (Vero E6 [11])	drug sensitivity score (Caco-2 [12])	drug sensitivity score (U2OS [13])	drug sensitivity score (Calu-3 [14])	drug sensitivity score (HepG2 [15])
Cc1c(C(=O)NCc2cccnc2)nn(-c2ccc(Cl)cc2Cl)c1-c1ccc(Cl)cc1 [MJ-15]	92.5	96.4	94.8	90.2	99.2	88	87.7	92.2	84.3	79.1	99.2	96.5	102	88.8	95.3	90.5	86.7	103	90.4	97	91.8	111	96.2	101	98.8	> 10	> 10	> 10	> 10	> 10	0	0	0	0	0
C=C(C)[C@@H]1CCC(C)=C[C@H]1c1c(OC)cc(C)cc1OC [O-1918]	106	102	106	99.5	102	96.4	105	100	98.5	105	102	106	97	101	99	102	97.5	96	91.6	95.9	101	94.9	104	95.3	95.9	> 10	> 10	> 10	> 10	> 10	0	0	0	0	0
CC(C)[N+](C)(CCOC(=O)C1c2ccccc2Oc2ccccc21)C(C)C [propantheline]	108	108	98.8	104	101	86.1	95.3	105	91.7	105	96.9	95.6	102	96.9	102	93.8	101	108	108	109	107	99	103	110	93.6	> 10	> 10	> 10	> 10	> 10	0	0	0	0	0
CC[N+](C)(CC)CC(=O)Nc1c(C)cccc1C [N-methyllidocaine-iodide]	98.7	96.2	99.2	102	101	88	101	103	94.8	102	95.1	101	96.7	97.4	100	98.2	102	102	96.7	102	106	95.4	93.7	111	107	> 10	> 10	> 10	> 10	> 10	0	0	0	0	0
CNCc1cc(-c2ccccc2F)n(S(=O)(=O)c2cccnc2)c1 [vonoprazan]	103	99.4	97.9	99.7	98.9	97.5	100	102	100	96.4	95.4	100	98.1	102	94.4	99.8	96.7	94.9	96.6	105	101	93.6	100	94.3	107	> 10	> 10	> 10	> 10	> 10	0	0	0	0	0
CC(C)S(=O)(=O)NC[C@H](C)c1ccc(-c2ccc(CCNS(C)(=O)=O)cc2)cc1 [mibampator]	90.8	98	95.1	94	95.6	96.4	100	101	103	83	99.1	102	100	104	94.1	101	107	99.9	99.9	86.2	107	105	101	88.2	32.6	> 10	> 10	> 10	> 10	1.85	0	0.3	0	0.2	5.7

Source: the supplement of paper PMC13380429
